Assay results as given in ChEMBL document CHEMBL3632577, “Lead optimization of the VU0486321 series of mGlu1 PAMs. Part 1: SAR of modifications to the central aryl core” (Bioorg Med Chem Lett, 2015).

Tests used:
[1] = target: T1, Metabotropic glutamate receptor 1 (Homo sapiens, UniProt Q13255); assay: Positive allosteric modulation of human mGluR1 by calcium mobilization assay relative to control; assay type: functional
Target sequence in this assay (Q13255 19-1194 limits assumed): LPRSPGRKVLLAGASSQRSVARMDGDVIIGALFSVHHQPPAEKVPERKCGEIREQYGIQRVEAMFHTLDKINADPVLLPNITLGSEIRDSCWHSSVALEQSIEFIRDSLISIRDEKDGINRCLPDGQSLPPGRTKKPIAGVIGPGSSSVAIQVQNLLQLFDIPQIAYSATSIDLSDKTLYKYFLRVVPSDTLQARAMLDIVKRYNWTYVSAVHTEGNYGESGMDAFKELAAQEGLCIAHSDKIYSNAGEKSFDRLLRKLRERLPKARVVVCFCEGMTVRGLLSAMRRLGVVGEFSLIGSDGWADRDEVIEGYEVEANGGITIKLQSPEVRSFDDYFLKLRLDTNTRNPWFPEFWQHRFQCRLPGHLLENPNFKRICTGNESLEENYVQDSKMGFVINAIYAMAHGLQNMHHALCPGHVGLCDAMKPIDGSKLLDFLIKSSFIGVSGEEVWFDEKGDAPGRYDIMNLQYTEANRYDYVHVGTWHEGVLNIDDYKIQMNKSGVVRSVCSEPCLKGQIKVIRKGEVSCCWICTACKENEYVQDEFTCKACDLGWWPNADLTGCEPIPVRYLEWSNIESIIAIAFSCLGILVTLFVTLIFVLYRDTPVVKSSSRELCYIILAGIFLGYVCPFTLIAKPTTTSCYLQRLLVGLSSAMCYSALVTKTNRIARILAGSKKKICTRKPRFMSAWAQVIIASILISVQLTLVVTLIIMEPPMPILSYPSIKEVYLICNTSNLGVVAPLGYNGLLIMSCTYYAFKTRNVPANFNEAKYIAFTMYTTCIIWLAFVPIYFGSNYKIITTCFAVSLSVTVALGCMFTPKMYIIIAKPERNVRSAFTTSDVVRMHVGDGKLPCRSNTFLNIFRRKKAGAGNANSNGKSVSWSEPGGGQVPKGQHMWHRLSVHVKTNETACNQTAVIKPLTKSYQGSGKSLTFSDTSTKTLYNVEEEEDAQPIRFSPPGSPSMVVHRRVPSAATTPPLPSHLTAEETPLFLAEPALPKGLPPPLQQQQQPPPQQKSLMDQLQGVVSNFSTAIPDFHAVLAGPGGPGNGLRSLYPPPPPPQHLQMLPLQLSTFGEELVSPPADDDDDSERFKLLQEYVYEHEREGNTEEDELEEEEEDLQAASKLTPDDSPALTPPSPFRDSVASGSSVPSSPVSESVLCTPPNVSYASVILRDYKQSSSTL

[2] = species: Homo sapiens; assay: Selectivity ratio of EC50 for human mGluR4 to EC50 for human mGluR1
[3] = target: T2, Metabotropic glutamate receptor 4 (Homo sapiens, UniProt Q14833); assay: Positive allosteric modulation of human mGluR4 by calcium mobilization assay relative to PHCCC; assay type: functional
T2 sequence (Q14833 whole entry): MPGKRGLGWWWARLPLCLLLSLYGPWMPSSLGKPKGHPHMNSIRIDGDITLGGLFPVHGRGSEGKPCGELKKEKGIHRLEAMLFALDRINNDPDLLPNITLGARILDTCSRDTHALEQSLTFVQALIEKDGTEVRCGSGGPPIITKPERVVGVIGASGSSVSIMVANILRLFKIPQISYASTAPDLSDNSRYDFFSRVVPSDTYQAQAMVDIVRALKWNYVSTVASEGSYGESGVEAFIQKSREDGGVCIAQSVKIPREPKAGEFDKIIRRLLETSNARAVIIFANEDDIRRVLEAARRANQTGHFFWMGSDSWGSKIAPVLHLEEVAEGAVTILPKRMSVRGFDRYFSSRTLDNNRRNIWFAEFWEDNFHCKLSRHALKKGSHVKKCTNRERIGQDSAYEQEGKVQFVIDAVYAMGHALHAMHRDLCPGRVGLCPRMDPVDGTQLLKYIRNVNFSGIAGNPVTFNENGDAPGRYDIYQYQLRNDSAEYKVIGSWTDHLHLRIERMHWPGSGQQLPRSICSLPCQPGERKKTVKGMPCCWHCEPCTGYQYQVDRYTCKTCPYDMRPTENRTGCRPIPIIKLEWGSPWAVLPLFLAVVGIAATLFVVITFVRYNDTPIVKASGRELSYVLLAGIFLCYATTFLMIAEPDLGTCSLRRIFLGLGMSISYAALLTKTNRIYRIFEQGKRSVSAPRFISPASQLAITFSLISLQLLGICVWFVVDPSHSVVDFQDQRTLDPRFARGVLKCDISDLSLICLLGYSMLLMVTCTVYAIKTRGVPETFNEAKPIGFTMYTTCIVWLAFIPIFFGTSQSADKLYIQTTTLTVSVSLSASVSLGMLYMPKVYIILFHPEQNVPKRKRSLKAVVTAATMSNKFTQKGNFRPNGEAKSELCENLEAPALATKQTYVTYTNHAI

[4] = target: T2, Metabotropic glutamate receptor 4; assay: Positive allosteric modulation of human mGluR4 by calcium mobilization assay; assay type: functional
[5] = target: T1, Metabotropic glutamate receptor 1; assay: Positive allosteric modulation of human mGluR1 by calcium mobilization assay; assay type: functional
Target sequence in this assay (Q13255 whole entry): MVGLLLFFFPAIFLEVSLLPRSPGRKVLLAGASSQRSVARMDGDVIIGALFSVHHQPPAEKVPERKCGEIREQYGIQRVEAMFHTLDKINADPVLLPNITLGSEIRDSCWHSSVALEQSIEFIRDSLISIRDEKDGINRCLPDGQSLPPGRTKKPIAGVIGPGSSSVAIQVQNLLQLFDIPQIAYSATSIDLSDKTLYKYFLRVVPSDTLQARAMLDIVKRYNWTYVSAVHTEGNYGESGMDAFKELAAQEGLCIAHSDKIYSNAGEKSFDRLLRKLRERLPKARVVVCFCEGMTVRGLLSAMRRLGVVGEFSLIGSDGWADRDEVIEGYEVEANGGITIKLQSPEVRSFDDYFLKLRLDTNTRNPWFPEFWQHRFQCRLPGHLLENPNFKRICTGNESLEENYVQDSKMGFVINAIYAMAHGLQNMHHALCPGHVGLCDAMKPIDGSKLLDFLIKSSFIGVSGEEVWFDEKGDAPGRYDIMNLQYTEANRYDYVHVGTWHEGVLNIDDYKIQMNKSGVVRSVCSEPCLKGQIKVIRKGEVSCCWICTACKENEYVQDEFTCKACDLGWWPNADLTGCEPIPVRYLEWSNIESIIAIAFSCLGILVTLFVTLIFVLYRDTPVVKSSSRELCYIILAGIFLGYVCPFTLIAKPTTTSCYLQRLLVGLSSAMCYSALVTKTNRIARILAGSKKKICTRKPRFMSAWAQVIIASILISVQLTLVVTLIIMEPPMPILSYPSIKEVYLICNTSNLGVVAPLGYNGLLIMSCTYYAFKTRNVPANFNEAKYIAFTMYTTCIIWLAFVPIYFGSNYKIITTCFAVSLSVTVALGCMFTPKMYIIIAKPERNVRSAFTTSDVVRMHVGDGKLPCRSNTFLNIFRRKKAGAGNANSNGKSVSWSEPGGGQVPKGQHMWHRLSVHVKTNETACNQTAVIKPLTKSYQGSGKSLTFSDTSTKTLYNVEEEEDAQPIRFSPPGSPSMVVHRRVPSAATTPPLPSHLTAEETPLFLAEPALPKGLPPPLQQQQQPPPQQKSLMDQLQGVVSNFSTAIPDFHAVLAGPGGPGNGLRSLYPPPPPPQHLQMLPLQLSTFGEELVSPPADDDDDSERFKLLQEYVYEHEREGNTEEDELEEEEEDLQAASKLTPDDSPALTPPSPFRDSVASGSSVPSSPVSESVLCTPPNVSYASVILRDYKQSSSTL

[6] = system: Rattus norvegicus; assay: Ratio of drug level in plasma to brain in rat at 0.2 mg/kg after 15 mins by cassette study; settings: in vivo, 0.25 h
[7] = system: Brain; assay: Fraction unbound in rat brain; assay type: ADME, tissue-based
[8] = system: Plasma; assay: Fraction unbound in rat plasma; assay type: ADME, cell-free
[9] = system: Plasma; assay: Fraction unbound in human plasma; assay type: ADME, cell-free

%max [1] [%] | Ratio EC50 [2] | %max [3] [%] | EC50 [4] [nM] | EC50 [5] [nM] | EC50 ([5]; read-out: EC50) [nM] | Ratio [6] | Fu [7] [%] | Fu [8] [%] | Fu [9] [%] | SMILES
101 | 16.7 | 35 | 483 | 28.8 | 29 | – | – | – | – | Cc1ccoc1C(=O)Nc1ccc(N2C(=O)c3cccc(Cl)c3C2=O)cc1
108 | 54.1 | 86 | 6660 | 123 | 123 | – | – | – | – | Cc1ccoc1C(=O)Nc1ccc(N2C(=O)c3ccccc3C2=O)c(C(F)(F)F)c1
89 | 1.01 | 23 | 4670 | 4680 | 4610 | – | – | – | – | Cc1ccoc1C(=O)Nc1cnc(N2C(=O)c3ccccc3C2=O)nc1
93 | 17.9 | 19 | 3550 | 200 | 198 | – | – | – | – | Cc1ccoc1C(=O)Nc1ccc(N2C(=O)c3cccc(F)c3C2=O)nc1
– | – | – | > 10000 | > 10000 | > 10000 | – | – | – | – | Cc1ccoc1C(=O)Nc1ccc(N2C(=O)c3ccccc3C2=O)cc1C(F)(F)F
99 | 17.4 | 54 | 353 | 20.4 | 20 | – | – | – | – | Cc1ccoc1C(=O)Nc1ccc(N2C(=O)c3ccccc3C2=O)c2ccccc12
88 | 27.3 | 103 | 429 | 15.8 | 16 | – | – | – | – | Cc1ccoc1C(=O)Nc1ccc(N2C(=O)c3cccc(C)c3C2=O)c2ccccc12
105 | 52.7 | 100 | 5000 | 95.5 | 95 | – | – | – | – | Cc1ccoc1C(=O)Nc1ccc(N2C(=O)c3cccc(C)c3C2=O)nc1
90 | 41.1 | 83 | 809 | 19.5 | 20 | – | – | – | – | Cc1ccoc1C(=O)Nc1ccc(N2C(=O)c3cccc(F)c3C2=O)c2ccccc12
117 | 10.8 | 109 | 5760 | 537 | 530 | – | – | – | – | Cc1ccoc1C(=O)Nc1ccc(N2C(=O)c3cccc(C)c3C2=O)c(C(F)(F)F)c1
80 | – | – | > 10000 | 389 | 387 | – | – | – | – | Cc1ccoc1C(=O)Nc1ccc(N2C(=O)c3ccccc3C2=O)nc1
68 | – | – | > 10000 | 28.8 | 29 | 0.12 | < 1 | < 1 | < 1 | Cc1ccoc1C(=O)Nc1ccc(N2C(=O)c3ccccc3C2=O)cc1Cl
84 | – | – | > 10000 | 12.6 | 13 | 1.57 | < 1 | < 1 | < 1 | Cc1ccoc1C(=O)Nc1ccc(N2C(=O)c3ccccc3C2=O)cc1F
– | – | – | > 10000 | > 10000 | > 10000 | – | – | – | – | Cc1ccoc1C(=O)Nc1ccc(N2C(=O)c3ccccc3C2=O)cn1
91 | 31.9 | 44 | 1110 | 34.7 | 35 | – | – | – | – | Cc1ccoc1C(=O)Nc1ccc(N2C(=O)c3cccc(Cl)c3C2=O)nc1
103 | 13.4 | 73 | 1930 | 145 | 144 | – | – | – | – | COc1cc(NC(=O)c2occc2C)ccc1N1C(=O)c2cccc(F)c2C1=O
– | – | – | > 10000 | > 10000 | > 10000 | – | – | – | – | Cc1ccoc1C(=O)Nc1ncc(N2C(=O)c3ccccc3C2=O)cn1
92 | 22.8 | 102 | 513 | 22.4 | 23 | – | – | – | – | Cc1ccoc1C(=O)Nc1ccc(N2C(=O)c3cccc(Cl)c3C2=O)c2ccccc12
105 | 23.3 | 120 | 2470 | 105 | 106 | – | – | – | – | Cc1ccoc1C(=O)Nc1ccc(N2C(=O)c3cccc(Cl)c3C2=O)c(C(F)(F)F)c1
101 | 11.9 | 65 | 265 | 22.4 | 22 | – | – | – | – | Cc1ccoc1C(=O)Nc1ccc(N2C(=O)c3ccccc3C2=O)c(F)c1

%max [1] [%] | Ratio EC50 [2] | %max [3] [%] | EC50 [4] [nM] | EC50 [5] [nM] | EC50 ([5]; read-out: EC50) [nM] | Ratio [6] | Fu [7] [%] | Fu [8] [%] | Fu [9] [%] | SMILES
84 | 12.2 | 45 | 2530 | 209 | 208 | – | – | – | – | Cc1ccoc1C(=O)Nc1cnc(N2C(=O)c3cccc(Cl)c3C2=O)nc1
95 | 22.4 | 86 | 1100 | 49 | 49 | – | – | – | – | Cc1cc(NC(=O)c2occc2C)ccc1N1C(=O)c2cccc(F)c2C1=O
110 | 18.5 | 80 | 2870 | 155 | 155 | – | – | – | – | Cc1ccoc1C(=O)Nc1ccc(N2C(=O)c3cccc(F)c3C2=O)c(C(F)(F)F)c1
93 | 36.1 | 103 | 647 | 18.2 | 18 | – | – | – | – | COc1cc(NC(=O)c2occc2C)ccc1N1C(=O)c2cccc(Cl)c2C1=O
82 | – | – | > 10000 | 47.9 | 48 | – | – | – | – | Cc1ccoc1C(=O)Nc1ccc(N2C(=O)c3ccccc3C2=O)cc1
100 | 9.5 | 93 | 264 | 27.5 | 28 | – | – | – | – | Cc1ccoc1C(=O)Nc1ccc(N2C(=O)c3cccc(Cl)c3C2=O)c(F)c1
80 | – | – | > 10000 | 331 | 330 | – | – | – | – | COc1cc(N2C(=O)c3ccccc3C2=O)ccc1NC(=O)c1occc1C
117 | 20.5 | 127 | 1010 | 49 | 49 | – | – | – | – | Cc1cc(NC(=O)c2occc2C)ccc1N1C(=O)c2cccc(Cl)c2C1=O
99 | – | 24 | > 10000 | 5370 | 5330 | – | – | – | – | Cc1ccoc1C(=O)Nc1cnc(N2C(=O)c3cccc(F)c3C2=O)nc1
90 | 40.6 | 52 | 609 | 15.1 | 15 | – | – | – | – | Cc1cc(N2C(=O)c3ccccc3C2=O)ccc1NC(=O)c1occc1C
100 | 19.8 | 122 | 422 | 21.4 | 21 | – | – | – | – | Cc1cc(NC(=O)c2occc2C)ccc1N1C(=O)c2cccc(C)c2C1=O
104 | 19.3 | 78 | 674 | 34.7 | 35 | – | – | – | – | Cc1ccoc1C(=O)Nc1ccc(N2C(=O)c3cccc(F)c3C2=O)c(F)c1
105 | 9.9 | 75 | 885 | 89.1 | 89 | – | – | – | – | Cc1cc(NC(=O)c2occc2C)ccc1N1C(=O)c2ccccc2C1=O
107 | 11 | 102 | 287 | 26.3 | 26 | – | – | – | – | Cc1ccoc1C(=O)Nc1ccc(N2C(=O)c3cccc(C)c3C2=O)c(F)c1
96 | 25.6 | 50 | 1180 | 46.8 | 46 | – | – | – | – | COc1cc(NC(=O)c2occc2C)ccc1N1C(=O)c2ccccc2C1=O
96 | 8.6 | 34 | 382 | 43.7 | 44 | – | – | – | – | Cc1ccoc1C(=O)Nc1ccc(N2C(=O)c3cccc(F)c3C2=O)cc1
108 | 21.7 | 62 | 350 | 16.2 | 16 | – | – | – | – | Cc1ccoc1C(=O)Nc1ccc(N2C(=O)c3cccc(C)c3C2=O)cc1
111 | 5.95 | 104 | 4470 | 759 | 751 | – | – | – | – | Cc1ccoc1C(=O)Nc1cnc(N2C(=O)c3cccc(C)c3C2=O)nc1
94 | 18 | 107 | 882 | 49 | 49 | – | – | – | – | COc1cc(NC(=O)c2occc2C)ccc1N1C(=O)c2cccc(C)c2C1=O
